Source: publication PMC10060427, “A glucose tolerant β-glucosidase from a newly isolated Neofusicoccum parvum strain F7: production, purification, and characterization” (Scientific Reports, 2023)

Key:
Assay type in all cases: biochemical, Neofusicoccum parvum
Bgl3 = system: T1, Bgl3; test: 4-nitrophenol release at […] nm, Lineweaver-Burk plot; conditions: standard assay described as 50 mM sodium acetate pH 5.0, 55 °C; 4-NPG 0-13.28 mM
T1 construct: native extracellular enzyme purified from culture supernatant (ammonium sulphate, HiTrap Q FF, native gel extraction); about 65 kDa; GH3 only inferred by authors

Bgl2 = system: T2, Bgl2; test: 4-NPG hydrolysis, absorbance at […] nm, glucose […]; conditions: product inhibition; substrate 4-NPG; standard assay described as 50 mM sodium acetate pH 5.0, 55 °C
T2 construct: native extracellular enzyme purified from culture supernatant, extracted from native gel; 230 kDa on native PAGE

Bgl1 = system: T3, Bgl1; test: 4-NPG hydrolysis, absorbance at […] nm, glucose […]; conditions: product inhibition; substrate 4-NPG; standard assay described as 50 mM sodium acetate pH 5.0, 55 °C
T3 construct: native extracellular enzyme purified from culture supernatant, extracted from native gel; 240 kDa on native PAGE

Compound O=[N+]([O-])c1ccc(O[C@@H]2O[C@H](CO)[C@@H](O)[C@H](O)[C@H]2O)cc1 [4-nitrophenyl-β-D-glucopyranoside] has a Km (Bgl3) of 1180 µM.

With OC[C@H]1OC(O)[C@H](O)[C@@H](O)[C@@H]1O (stereo partly drawn) [glucose] the IC50 (Bgl2) was 22.6 mM and the IC50 (Bgl1) was 2.6 mM.
